Laboratory results as given in US20230286958A1, “PLASMA KALLIKREIN INHIBITORS” (Merck Sharp & Dohme LLC, priority 2020, published 2023).

Columns and labels:
Human plasma kallikrein = Human plasma kallikrein (Homo sapiens (Human), UniProt P03952); experiment: Kallikrein Assay (fluorogenic substrate Acetyl-K-P-R-AFC); type: biochemical; details: Plasma Kallikrein (PKal)
Outline: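 Ki is derived from IC50 with the Cheng-Prusoff equation, and IC50 from the inflection point of a four-parameter logistic curve. The rate of AFC release is read with 0.5 nM purified enzyme and […] substrate at room temperature or 37 °C.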

human Factor XIa = human Factor XIa (Homo sapiens (Human), UniProt P03951); experiment: Factor XIa Assay (fluorogenic substrate GPR-AFC); type: biochemical; details: Factor XIa (FXIa)
Sequence of human Factor XIa (P03951 388-625 limits assumed): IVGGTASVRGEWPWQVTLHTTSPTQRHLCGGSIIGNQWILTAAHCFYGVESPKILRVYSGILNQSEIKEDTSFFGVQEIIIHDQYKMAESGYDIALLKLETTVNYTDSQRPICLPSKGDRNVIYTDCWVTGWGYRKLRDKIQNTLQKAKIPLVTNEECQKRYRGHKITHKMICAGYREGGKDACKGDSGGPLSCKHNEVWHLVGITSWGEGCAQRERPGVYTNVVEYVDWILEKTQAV
Sequence of human Factor XIa (P03951 19-387 partner limits assumed): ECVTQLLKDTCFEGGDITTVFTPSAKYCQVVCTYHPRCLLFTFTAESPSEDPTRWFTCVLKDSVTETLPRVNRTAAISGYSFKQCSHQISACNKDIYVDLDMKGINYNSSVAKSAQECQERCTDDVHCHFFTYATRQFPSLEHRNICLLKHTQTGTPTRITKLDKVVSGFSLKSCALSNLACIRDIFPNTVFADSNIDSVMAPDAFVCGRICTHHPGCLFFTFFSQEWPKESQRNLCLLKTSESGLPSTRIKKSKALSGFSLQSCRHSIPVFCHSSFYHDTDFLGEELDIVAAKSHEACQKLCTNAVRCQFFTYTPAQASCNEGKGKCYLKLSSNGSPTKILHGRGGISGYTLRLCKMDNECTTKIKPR

Sequence of Human plasma kallikrein (P03952 391-638): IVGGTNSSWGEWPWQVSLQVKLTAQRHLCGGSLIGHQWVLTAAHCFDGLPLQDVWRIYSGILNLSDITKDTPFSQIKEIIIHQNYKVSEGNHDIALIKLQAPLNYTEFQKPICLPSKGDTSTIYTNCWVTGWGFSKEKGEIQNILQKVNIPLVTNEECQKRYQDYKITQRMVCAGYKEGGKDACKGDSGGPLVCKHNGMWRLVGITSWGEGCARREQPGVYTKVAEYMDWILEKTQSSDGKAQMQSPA
Sequence of Human plasma kallikrein (P03952 20-390 partner): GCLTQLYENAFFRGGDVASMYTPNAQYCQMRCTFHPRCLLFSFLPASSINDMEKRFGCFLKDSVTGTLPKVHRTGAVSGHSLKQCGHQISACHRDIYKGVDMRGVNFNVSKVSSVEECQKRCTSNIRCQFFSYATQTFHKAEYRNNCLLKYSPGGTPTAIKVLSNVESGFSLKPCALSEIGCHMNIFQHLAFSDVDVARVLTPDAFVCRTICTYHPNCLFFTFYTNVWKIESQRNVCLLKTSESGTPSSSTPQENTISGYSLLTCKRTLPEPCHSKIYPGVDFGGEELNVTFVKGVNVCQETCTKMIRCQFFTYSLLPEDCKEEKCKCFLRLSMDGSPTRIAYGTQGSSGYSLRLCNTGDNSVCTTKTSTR

Cc1c(C(C)n2cc(NC(=O)c3cncc(-c4c(C(F)F)ccc(Cl)c4F)n3)cn2)cnc(N2C[C@H]3C[C@H]3C2=O)c1C (single isomer, unassigned) [Example 153, 6-(3-Chloro-6-(difluoromethyl)-2-fluorophenyl)-N-(1-((S or R)-1-(4,5-dimethyl-6-((1R,5S)-2-oxo-3-azabicyclo[3.1.0]hexan-3-yl)pyridin-3-yl)ethyl)-1H-pyrazol-4-yl)pyrazine-2-carboxamide]
IC50 (Human plasma kallikrein): 2 nM
IC50 (human Factor XIa): 2170 nM

COc1c(N2C[C@H]3C[C@H]3C2=O)ncc(C(C)n2cc(NC(=O)c3cncc(-c4c(C(F)F)ccc(Cl)c4F)n3)cn2)c1C (single isomer, unassigned) [Example 154, 6-(3-Chloro-6-(difluoromethyl)-2-fluorophenyl)-N-(1-((R or S)-1-(5-methoxy-4-methyl-6-((1R,5S)-2-oxo-3-azabicyclo[3.1.0]hexan-3-yl)pyridin-3-yl)ethyl)-1H-pyrazol-4-yl)pyrazine-2-carboxamide]
IC50 (Human plasma kallikrein): 0.3 nM
IC50 (human Factor XIa): 661 nM

COc1c(N2C[C@H]3C[C@H]3C2=O)ncc(C(C)n2cc(NC(=O)c3cncc(-c4c(C(F)F)ccc(Cl)c4F)n3)cn2)c1C (single isomer, unassigned) [Example 155, 6-(3-Chloro-6-(difluoromethyl)-2-fluorophenyl)-N-(1-((S or R)-1-(5-methoxy-4-methyl-6-((1R,5S)-2-oxo-3-azabicyclo[3.1.0]hexan-3-yl)pyridin-3-yl)ethyl)-1H-pyrazol-4-yl)pyrazine-2-carboxamide]
IC50 (Human plasma kallikrein): 7.1 nM
IC50 (human Factor XIa): 8200 nM

O=C(Nc1cnn(C(CO)c2cnc(N3CC4CC4C3=O)nc2)c1)c1cncc(-c2c(C(F)F)ccc(Cl)c2F)n1 (single isomer, unassigned) [Example 161, 6-(3-chloro-6-(difluoromethyl)-2-fluorophenyl)-N-(1-((S or R)-2-hydroxy-1-(2-((1S,5R or 1R,5S)-2-oxo-3-azabicyclo[3.1.0]hexan-3-yl)pyrimidin-5-yl)ethyl)-1H-pyrazol-4-yl)pyrazine-2-carboxamide]
IC50 (Human plasma kallikrein): 26.7 nM
IC50 (human Factor XIa): > 10000 nM

Cc1ncc(-c2c(C(F)F)ccc(Cl)c2F)nc1C(=O)Nc1cnn(C(CO)c2ccc(N3CC4CC4C3=O)nc2)c1 (single isomer, unassigned) [Example 162, 6-(3-chloro-6-(difluoromethyl)-2-fluorophenyl)-N-(1-((S or R)-2-hydroxy-1-(6-((1S,5R or 1R,5S)-2-oxo-3-azabicyclo[3.1.0]hexan-3-yl)pyridin-3-yl)ethyl)-1H-pyrazol-4-yl)-3-methylpyrazine-2-carboxamide]
IC50 (Human plasma kallikrein): 8.7 nM
IC50 (human Factor XIa): 3450 nM

Cc1ncc(-c2c(C(F)F)ccc(Cl)c2F)nc1C(=O)Nc1cnn(C(CO)c2ccc(N3CC4CC4C3=O)nc2)c1 (single isomer, unassigned) [Example 163, 6-(3-Chloro-6-(difluoromethyl)-2-fluorophenyl)-N-(1-((S or R)-2-hydroxy-1-(6-((1S,5R or 1R,5S)-2-oxo-3-azabicyclo[3.1.0]hexan-3-yl)pyridin-3-yl)ethyl)-1H-pyrazol-4-yl)-3-methylpyrazine-2-carboxamide]
IC50 (Human plasma kallikrein): 9.2 nM
IC50 (human Factor XIa): > 10000 nM

Cc1ncc(-c2c(C(F)F)ccc(Cl)c2F)nc1C(=O)Nc1cnn(C(CO)c2cnc(N3C[C@H]4C[C@H]4C3=O)nc2)c1 (single isomer, unassigned) [Example 164, 6-(3-Chloro-6-(difluoromethyl)-2-fluorophenyl)-N-(1-((R or S)-2-hydroxy-1-(2-((1R,5S)-2-oxo-3-azabicyclo[3.1.0]hexan-3-yl)pyrimidin-5-yl)ethyl)-1H-pyrazol-4-yl)-3-methylpyrazine-2-carboxamide]
IC50 (Human plasma kallikrein): 5.4 nM
IC50 (human Factor XIa): 4890 nM

Cc1ncc(-c2c(C(F)F)ccc(Cl)c2F)nc1C(=O)Nc1cnn(C(CO)c2cnc(N3C[C@H]4C[C@H]4C3=O)nc2)c1 (single isomer, unassigned) [Example 165, 6-(3-Chloro-6-(difluoromethyl)-2-fluorophenyl)-N-(1-((S or R)-2-hydroxy-1-(2-((1R,5S)-2-oxo-3-azabicyclo[3.1.0]hexan-3-yl)pyrimidin-5-yl)ethyl)-1H-pyrazol-4-yl)-3-methylpyrazine-2-carboxamide]
IC50 (Human plasma kallikrein): 20.7 nM
IC50 (human Factor XIa): 2050 nM

Cc1ncc(-c2c(C#N)ccc(Cl)c2F)nc1C(=O)Nc1cnn(C(CO)c2cnc(N3C[C@H]4C[C@H]4C3=O)nc2)c1 (single isomer, unassigned) [Example 166, 6-(3-Chloro-6-cyano-2-fluorophenyl)-N-(1-((R or S)-2-hydroxy-1-(2-((1R,5S)-2-oxo-3-azabicyclo[3.1.0]hexan-3-yl)pyrimidin-5-yl)ethyl)-1H-pyrazol-4-yl)-3-methylpyrazine-2-carboxamide]
IC50 (Human plasma kallikrein): 19.7 nM
IC50 (human Factor XIa): > 10000 nM

Cc1c(C(CO)n2cc(NC(=O)c3cncc(-c4c(C(F)F)ccc(Cl)c4F)n3)cn2)cnc(N2C[C@H]3C[C@H]3C2=O)c1C (single isomer, unassigned) [Example 167, 6-(3-Chloro-6-(difluoromethyl)-2-fluorophenyl)-N-(1-([R or S)-1-(4,5-dimethyl-6-((1R,5S)-2-oxo-3-azabicyclo[3.1.0]hexan-3-yl)pyridin-3-yl)-2-hydroxyethyl)-1H-pyrazol-4-yl)pyrazine-2-carboxamide]
IC50 (Human plasma kallikrein): 10.5 nM
IC50 (human Factor XIa): 3650 nM

Cc1c(C(CO)n2cc(NC(=O)c3cncc(-c4c(C(F)F)ccc(Cl)c4F)n3)cn2)cnc(N2C[C@H]3C[C@H]3C2=O)c1C (single isomer, unassigned) [Example 168, 6-(3-Chloro-6-(difluoromethyl)-2-fluorophenyl)-N-(1-((S or R)-1-(4,5-dimethyl-6-((1R,5S)-2-oxo-3-azabicyclo[3.1.0]hexan-3-yl)pyridin-3-yl)-2-hydroxyethyl)-1H-pyrazol-4-yl)pyrazine-2-carboxamide]
IC50 (Human plasma kallikrein): 0.4 nM
IC50 (human Factor XIa): 261 nM

C[C@@H](c1cnc(N2C[C@H]3C[C@H]3C2=O)nc1)n1cc(NC(=O)c2nc(-c3c(C(F)F)ccc(Cl)c3F)cnc2C(O)C(F)(F)F)cn1 (single isomer, unassigned) [Example 176, 6-(3-Chloro-6-(difluoromethyl)-2-fluorophenyl)-N-(1-((S)-1-(2-((1R,5S)-2-oxo-3-azabicyclo[3.1.0]hexan-3-yl)pyrimidin-5-yl)ethyl)-1H-pyrazol-4-yl)-3-((S or R)-2,2,2-trifluoro-1-hydroxyethyl)pyrazine-2-carboxamide]
IC50 (Human plasma kallikrein): 5.3 nM
IC50 (human Factor XIa): 4550 nM

C[C@@H](c1cnc(N2C[C@H]3C[C@H]3C2=O)nc1)n1cc(NC(=O)c2nc(-c3c(C(F)F)ccc(Cl)c3F)cnc2C(O)C(F)(F)F)cn1 (single isomer, unassigned) [Example 177, 6-(3-Chloro-6-(difluoromethyl)-2-fluorophenyl)-N-(1-((S)-1-(2-((1R,5S)-2-oxo-3-azabicyclo[3.1.0]hexan-3-yl)pyrimidin-5-yl)ethyl)-1H-pyrazol-4-yl)-3-((R or S)-2,2,2-trifluoro-1-hydroxyethyl)pyrazine-2-carboxamide]
IC50 (Human plasma kallikrein): 47.8 nM
IC50 (human Factor XIa): > 10000 nM
